Laboratory results published in paper PMC9395446, “First-in-human phase 1/1b study to evaluate sitravatinib in patients with advanced solid tumors” (Investigational New Drugs, 2022).
Values after ≈ are worked out from the molar mass of the structure shown.

System: VEGF-R2
Test: Pharmacodynamic plasma markers VEGF-A and s-VEGF-R2, exposure-response analysis
Format: in vivo, human
Protocol: PK samples were collected after a single dose during the PK lead-in period and following multiple oral doses during the study. Plasma PK samples were assayed for quantification of sitravatinib. The lower limit of quantification was 0.05 ng/mL. PK parameters were determined using a noncompartmental analysis approach including maximum (peak) concentration (Cmax), time to reach Cmax following drug administration (tmax), area under the plasma concentration–time curves (AUCs), apparent total clearance of the drug from plasma after oral administration, apparent volume of distribution during the terminal phase after administration and terminal elimination half-life (t1/2). PD effects were examined by analyzing VEGF-A ligand and soluble (s)-VEGF-R2 levels in patients’ plasma samples collected before and after sitravatinib administration.

## COCCNCc1ccc(-c2cc3nccc(Oc4ccc(NC(=O)C5(C(=O)Nc6ccc(F)cc6)CC5)cc4F)c3s2)nc1 [sitravatinib, Sitravatinib]
Homo sapiens, plasma PD markers, drug target VEGF-R2, read-out: EC50 from exposure-response analysis
  EC50: 0.0309 µg/mL (≈ 0.0491 µM)
plasma, after sitravatinib administration
  VEGF-A percent change from baseline (increase): 200%
